Data published in ChEMBL document CHEMBL5705887, “Distinct concentration-dependent effects of the polo-like kinase 1-specific inhibitor GSK461364A, including differential effect on apoptosis” (Cancer Res, 2009).
The source made the active and inactive calls. The rule behind the calls is not given here.

How the values were obtained:
[1] = test system: COLO 205; assay: Antitumor activity against human COLO 205 cells xenografted in Nude mouse assessed as tumor growth delay time at 50 mg/kg, ip administered every 2 to 4 days; assay type: functional; settings: time 2-4 day
[2] = test system: MDA-MB-468; assay: Antiproliferative activity against human MDA-MB-468 cells assessed as viable cell signal at maximum growth inhibition incubated for 72 hrs by celltiter-glo assay relative to control; assay type: functional
[3] = test system: SK-MEL-5; assay: Antiproliferative activity against human SK-MEL-5 cells assessed as of viable cell signal at minimum maximum cell growth incubated for 72 hrs by celltiter-glo assay relative to control; assay type: functional
[4] = target: Calcium/calmodulin-dependent protein kinase type II subunit beta (Homo sapiens) (UniProt Q13554); assay: Inhibition of recombinant human CaMKII-beta at 10 uM relative to control
Sequence of Calcium/calmodulin-dependent protein kinase type II subunit beta (Homo sapiens) (Q13554 whole entry): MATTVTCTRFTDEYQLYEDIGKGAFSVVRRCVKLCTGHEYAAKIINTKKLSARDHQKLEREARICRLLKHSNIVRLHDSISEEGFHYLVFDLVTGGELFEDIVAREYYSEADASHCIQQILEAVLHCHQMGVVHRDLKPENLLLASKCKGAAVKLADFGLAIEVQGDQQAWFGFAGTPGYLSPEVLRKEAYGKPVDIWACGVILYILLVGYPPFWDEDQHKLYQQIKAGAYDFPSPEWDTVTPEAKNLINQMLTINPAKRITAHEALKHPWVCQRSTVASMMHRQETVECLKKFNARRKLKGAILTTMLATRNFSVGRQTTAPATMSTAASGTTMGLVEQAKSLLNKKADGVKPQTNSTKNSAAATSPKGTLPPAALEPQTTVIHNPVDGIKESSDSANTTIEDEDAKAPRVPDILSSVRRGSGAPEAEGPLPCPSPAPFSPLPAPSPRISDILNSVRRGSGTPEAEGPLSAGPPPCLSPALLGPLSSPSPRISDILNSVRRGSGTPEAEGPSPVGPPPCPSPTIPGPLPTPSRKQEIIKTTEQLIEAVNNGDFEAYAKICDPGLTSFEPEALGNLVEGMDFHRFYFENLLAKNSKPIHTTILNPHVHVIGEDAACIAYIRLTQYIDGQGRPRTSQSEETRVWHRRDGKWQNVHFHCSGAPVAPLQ

[5] = test system: NCI-H157; assay: Antiproliferative activity against human NCI-H157 cells assessed as viable cell signal at maximum growth inhibition incubated for 72 hrs by celltiter-glo assay relative to control; assay type: functional
[6] = test system: A-431; assay: Antiproliferative activity against human A-431 cells assessed as viable cell signal at maximum growth inhibition incubated for 72 hrs by celltiter-glo assay relative to control; assay type: functional
[7] = test system: NCI-H460; assay: Antiproliferative activity against human NCI-H460 cells assessed as growth inhibition incubated for 72 hrs by celltiter-glo assay; assay type: functional
[8] = test system: T-24; assay: Antiproliferative activity against human T24 cells assessed as growth inhibition incubated for 72 hrs by celltiter-glo assay; assay type: functional
[9] = test system: ZR-75-1; assay: Antiproliferative activity against human ZR-75-1 cells assessed as growth inhibition incubated for 72 hrs by celltiter-glo assay; assay type: functional
[10] = test system: OVCAR-4; assay: Antiproliferative activity against human OVCAR-4 cells assessed as growth inhibition incubated for 72 hrs by celltiter-glo assay; assay type: functional
[11] = test system: SK-MEL3; assay: Antiproliferative activity against human SK-MEL3 cells assessed as viable cell signal at maximum growth inhibition incubated for 72 hrs by celltiter-glo assay relative to control; assay type: functional
[12] = test system: U2OS; assay: Antiproliferative activity against human U2OS cells assessed as viable cell signal at maximum growth inhibition incubated for 72 hrs by celltiter-glo assay relative to control; assay type: functional
[13] = test system: ZR-75-1; assay: Antiproliferative activity against human ZR-75-1 cells assessed as of viable cell signal at minimum maximum cell growth incubated for 72 hrs by celltiter-glo assay relative to control; assay type: functional
[14] = test system: A498; assay: Antiproliferative activity against human A498 cells assessed as of viable cell signal at minimum maximum cell growth incubated for 72 hrs by celltiter-glo assay relative to control; assay type: functional
[15] = test system: LNCaP; assay: Antiproliferative activity against human LNCaP cells assessed as growth inhibition incubated for 72 hrs by celltiter-glo assay; assay type: functional
[16] = test system: BT-549; assay: Antiproliferative activity against human BT-549 cells assessed as growth inhibition incubated for 72 hrs by celltiter-glo assay; assay type: functional
[17] = target: Cyclin-dependent kinase 1/cyclin B1 (Homo sapiens) (UniProt P06493+P14635); assay: Inhibition of C-terminal his6-tagged recombinant human CDK1/full length N-terminal GST-tagged recombinant human cyclin B expressed in baculovirus Sf21 insect cells at 10 uM relative to control
Sequence of Cyclin-dependent kinase 1/cyclin B1 (Homo sapiens) (P06493 whole entry, looked up): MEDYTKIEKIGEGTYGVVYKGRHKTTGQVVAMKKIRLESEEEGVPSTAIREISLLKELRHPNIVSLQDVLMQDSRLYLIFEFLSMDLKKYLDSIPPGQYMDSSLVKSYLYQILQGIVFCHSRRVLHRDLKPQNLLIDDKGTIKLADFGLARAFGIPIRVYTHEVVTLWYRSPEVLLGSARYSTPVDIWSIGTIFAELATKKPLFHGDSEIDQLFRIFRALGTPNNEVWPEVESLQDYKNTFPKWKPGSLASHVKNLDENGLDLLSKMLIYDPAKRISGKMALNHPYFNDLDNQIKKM
Sequence of Cyclin-dependent kinase 1/cyclin B1 (Homo sapiens) (P14635 whole entry, looked up): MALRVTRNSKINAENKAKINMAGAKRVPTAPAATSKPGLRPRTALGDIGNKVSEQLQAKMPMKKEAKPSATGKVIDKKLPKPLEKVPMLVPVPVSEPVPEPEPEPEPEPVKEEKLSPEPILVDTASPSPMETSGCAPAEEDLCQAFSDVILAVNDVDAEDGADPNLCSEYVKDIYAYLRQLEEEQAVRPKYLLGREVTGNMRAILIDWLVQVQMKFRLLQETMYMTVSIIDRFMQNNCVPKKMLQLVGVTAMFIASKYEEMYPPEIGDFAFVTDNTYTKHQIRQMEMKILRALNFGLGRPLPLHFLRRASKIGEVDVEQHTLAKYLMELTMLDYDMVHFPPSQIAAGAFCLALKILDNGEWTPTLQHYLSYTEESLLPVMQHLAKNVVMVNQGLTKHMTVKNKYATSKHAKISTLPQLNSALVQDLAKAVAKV

[18] = test system: RPMI-8226; assay: Antiproliferative activity against human RPMI-8226 cells assessed as growth inhibition incubated for 72 hrs by celltiter-glo assay; assay type: functional
[19] = Antiproliferative activity against human PL45 cells assessed as growth inhibition incubated for 72 hrs by celltiter-glo assay; assay type: functional
[20] = test system: OVCAR-8; assay: Antiproliferative activity against human OVCAR-8 cells assessed as growth inhibition incubated for 72 hrs by celltiter-glo assay; assay type: functional
[21] = target: Testis-specific serine/threonine-protein kinase 1 (Homo sapiens) (UniProt Q9BXA7); assay: Inhibition of full length his6-tagged recombinant human TSSK1 expressed in baculovirus Sf21 insect cells at 10 uM relative to control
Sequence of Testis-specific serine/threonine-protein kinase 1 (Homo sapiens) (Q9BXA7 whole entry): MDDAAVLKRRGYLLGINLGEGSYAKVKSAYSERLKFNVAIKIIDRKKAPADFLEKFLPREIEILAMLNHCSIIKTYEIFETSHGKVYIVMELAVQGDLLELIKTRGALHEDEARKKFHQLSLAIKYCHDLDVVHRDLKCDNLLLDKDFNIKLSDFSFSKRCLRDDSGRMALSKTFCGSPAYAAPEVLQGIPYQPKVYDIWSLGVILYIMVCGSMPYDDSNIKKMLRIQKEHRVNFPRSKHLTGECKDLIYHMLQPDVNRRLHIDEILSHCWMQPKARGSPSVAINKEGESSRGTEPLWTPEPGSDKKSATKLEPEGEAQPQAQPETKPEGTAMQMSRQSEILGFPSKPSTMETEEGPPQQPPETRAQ

[22] = test system: NCI-H157; assay: Antiproliferative activity against human NCI-H157 cells assessed as of viable cell signal at minimum maximum cell growth incubated for 72 hrs by celltiter-glo assay relative to control; assay type: functional
[23] = test system: SW480; assay: Antiproliferative activity against human SW480 cells assessed as viable cell signal at maximum growth inhibition incubated for 72 hrs by celltiter-glo assay relative to control; assay type: functional
[24] = test system: MDA-MB-468; assay: Induction of mitotic arrest in human MDA-MB-468 cells assessed as effect on pHH3 level at 10 to 250 nmol/L incubated for 19 hrs by ELISA analysis; assay type: functional, cell-based; settings: dose 10-250 nmol/L
[25] = test system: HN5; assay: Antiproliferative activity against human HN5 cells assessed as growth inhibition incubated for 72 hrs by celltiter-glo assay; assay type: functional
[26] = test system: MX1; assay: Antiproliferative activity against human MX1 cells assessed as growth inhibition incubated for 72 hrs by celltiter-glo assay; assay type: functional
[27] = test system: OVCAR-4; assay: Antiproliferative activity against human OVCAR-4 cells assessed as viable cell signal at maximum growth inhibition incubated for 72 hrs by celltiter-glo assay relative to control; assay type: functional
[28] = test system: U2OS; assay: Induction of mitotic arrest in human U2OS cells assessed as effect on pHH3 level at 10 to 250 nmol/L incubated for 19 hrs by ELISA analysis; assay type: functional, cell-based; settings: dose 10-250 nmol/L
[29] = test system: A704; assay: Antiproliferative activity against human A704 cells assessed as of viable cell signal at minimum maximum cell growth incubated for 72 hrs by celltiter-glo assay relative to control; assay type: functional
[30] = test system: COLO 205; assay: Antitumor activity against human COLO 205 cells xenografted in Nude mouse assessed as increase in pIk1 level at 50 mg/kg, ip measured at 24 hrs by immunohistochemistry analysis; assay type: functional, organism-based
[31] = test system: NCI-H1155; assay: Antiproliferative activity against human NCI-H1155 cells assessed as growth inhibition incubated for 72 hrs by celltiter-glo assay; assay type: functional
[32] = test system: NCI-H82; assay: Antiproliferative activity against human NCI-H82 cells assessed as of viable cell signal at minimum maximum cell growth incubated for 72 hrs by celltiter-glo assay relative to control; assay type: functional
[33] = test system: DU-145; assay: Antiproliferative activity against human DU-145 cells assessed as viable cell signal at maximum growth inhibition incubated for 72 hrs by celltiter-glo assay relative to control; assay type: functional
[34] = test system: HCT-116; assay: Antiproliferative activity against human HCT-116 cells assessed as viable cell signal at maximum growth inhibition incubated for 72 hrs by celltiter-glo assay relative to control; assay type: functional
[35] = test system: MDA-MB-468; assay: Antiproliferative activity against human MDA-MB-468 cells assessed as of viable cell signal at minimum maximum cell growth incubated for 72 hrs by celltiter-glo assay relative to control; assay type: functional
[36] = test system: SK-MEL3; assay: Antiproliferative activity against human SK-MEL3 cells assessed as of viable cell signal at minimum maximum cell growth incubated for 72 hrs by celltiter-glo assay relative to control; assay type: functional
[37] = test system: OVCAR-3; assay: Antiproliferative activity against human OVCAR-3 cells assessed as growth inhibition incubated for 72 hrs by celltiter-glo assay; assay type: functional
[38] = test system: SK-BR-3; assay: Antiproliferative activity against human SK-BR-3 cells assessed as growth inhibition incubated for 72 hrs by celltiter-glo assay; assay type: functional
[39] = test system: COLO 205; assay: Antitumor activity against human COLO 205 cells xenografted in Nude mouse assessed as increase in pIk1 level at 50 to 100 mg/kg, ip measured at 24 to 48 hrs by immunohistochemistry analysis; assay type: functional, organism-based; settings: dose 50-100 mg/kg, time 24-48 hrs
[40] = test system: Calu-3; assay: Antiproliferative activity against human Calu-3 cells assessed as growth inhibition incubated for 72 hrs by celltiter-glo assay; assay type: functional

With `C[C@@H](Oc1cc(-n2cnc3ccc(CN4CCN(C)CC4)cc32)sc1C(N)=O)c1ccccc1C(F)(F)F` [GSK-461364] the Time [1] was 39 days, the Emax [2] was 458% and the Emin [3] was 84%. The inhibition [4] was 56%, the Emax [5] was 847% and the Emax [6] was 820%. The GI50 [7] was 37.8 nM, the GI50 [8] was 42.3 nM and the GI50 [9] was 46.5 nM. For the same compound, the GI50 [10] was 24.2 nM, the Emax [11] was 708% and the Emax [12] was 771%. For the same compound, the Emin [13] was 133.6%, the Emin [14] was 243.2% and the GI50 [15] was 15.3 nM. The GI50 [16] was 23.1 nM, the inhibition [17] was 66% and the GI50 [18] was 22.5 nM. For the same compound, the GI50 [19] was 21.9 nM, the GI50 [20] was 20.4 nM and the inhibition [21] was 61%. The Emin [22] was 95.3%, the Emax [23] was 512% and the Activity [24] was “Active”. The GI50 [25] was 15.4 nM, the GI50 [26] was 12.1 nM and the Emax [27] was 342%. For the same compound, the Activity [28] was “Active”, the Emin [29] was 3.2% and the Activity [30] was “Active”. For the same compound, the GI50 [31] was 14.4 nM, the Emin [32] was 22.8% and the Emax [33] was 500%. The Emax [34] was 545%, the Emin [35] was 182.2% and the Emin [36] was 112.5%. For the same compound, the GI50 [37] was 12.9 nM, the GI50 [38] was 15.8 nM and the Activity [39] was “Active”. The GI50 [40] was 35.6 nM.
